The target of data set [1] is T1, recombinantly produced D4 receptors from human (COS cells) (Homo sapiens, UniProt P21917).
T1 construct: expressed in transfected cells; host or cells: COS cells
T1 sequence (P21917 1-419): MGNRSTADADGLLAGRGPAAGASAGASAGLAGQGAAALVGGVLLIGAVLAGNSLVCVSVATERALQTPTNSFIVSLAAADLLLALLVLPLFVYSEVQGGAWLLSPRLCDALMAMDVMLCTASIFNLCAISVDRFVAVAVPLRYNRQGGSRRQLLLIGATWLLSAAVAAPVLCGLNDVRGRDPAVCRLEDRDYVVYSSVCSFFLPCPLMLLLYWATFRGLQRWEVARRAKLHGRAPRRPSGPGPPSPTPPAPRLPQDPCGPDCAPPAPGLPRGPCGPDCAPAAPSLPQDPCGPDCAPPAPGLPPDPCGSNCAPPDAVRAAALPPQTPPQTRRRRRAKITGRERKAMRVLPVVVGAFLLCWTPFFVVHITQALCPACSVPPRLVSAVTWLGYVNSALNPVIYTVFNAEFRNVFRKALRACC
The experiment in a line: Determination of D4 receptor binding activity (3H-YM 09151-2 displacement). The protocol:
(§1) Pellets of COS cells containing recombinantly produced D2 or D4 receptors from human are used for the assays. The sample is homogenized in 100 volumes (w/vol) of 0.05 M Tris HCl buffer at 4° C. and pH 7.4. The sample is then centrifuged at 30,000×g and resuspended and rehomogenized. The sample is then centrifuged as described and the final tissue sample is frozen until use. The tissue is resuspended […] (wt/vol) in 0.05 M Tris HCl buffer containing 100 mM NaCl.

Data set [2] addresses T2, recombinantly produced D2 receptors from human (COS cells) (Homo sapiens, UniProt P14416).
T2 construct: expressed in transfected cells; host or cells: COS cells
Kind of data set: biochemical. The format is binding. The note with it: COS cell pellets, 0.5 nM 3H-YM 09151-2. The protocol:
as §1

Structures are written as SMILES.

T2 sequence (P14416 whole entry): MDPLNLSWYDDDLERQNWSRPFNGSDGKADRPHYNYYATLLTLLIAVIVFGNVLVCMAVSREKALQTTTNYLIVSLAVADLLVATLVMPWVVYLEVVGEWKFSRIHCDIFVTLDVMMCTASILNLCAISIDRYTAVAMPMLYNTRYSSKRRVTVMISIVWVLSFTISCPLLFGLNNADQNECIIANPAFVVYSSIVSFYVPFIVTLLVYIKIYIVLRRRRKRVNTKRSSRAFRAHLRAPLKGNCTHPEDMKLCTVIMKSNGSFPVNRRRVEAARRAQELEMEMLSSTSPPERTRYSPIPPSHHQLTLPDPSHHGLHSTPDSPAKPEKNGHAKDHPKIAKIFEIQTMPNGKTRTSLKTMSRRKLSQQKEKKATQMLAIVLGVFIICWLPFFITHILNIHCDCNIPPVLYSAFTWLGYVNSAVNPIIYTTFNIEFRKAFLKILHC

By melting point is commonly meant the temperature, or range, at which the solid turns liquid. The compound `Br.Cc1cc(Br)ccc1N1CCN(C[C@@H]2C[C@H]2c2ccccc2)CC1` (relative stereo) yielded a melting point of 182 to 183 °C.

For `Br.Cc1cc([N+](=O)[O-])ccc1N1CCN(C[C@@H]2C[C@H]2c2ccccc2)CC1` (relative stereo), the melting point fell in the range of 197 to 198 °C. On the same count and under the same terms, the result for `Br.Cc1cc(N)ccc1N1CCN(C[C@@H]2C[C@H]2c2ccccc2)CC1` (relative stereo) reads 284 to 285 °C. As usually defined, the Ki is the dissociation constant of the complex between target and ligand, obtained from inhibition or displacement. Regarding `Clc1ccc([C@H]2C[C@@H]2CN2CCN(c3ccc(Cl)cc3)CC2)cc1` (relative stereo) [Compound 3, 1-(4-chlorophenyl)-4-(trans-2-[4-chlorophenyl]cyclopropyl)methylpiperazine], the figures for the inhibitory constant (Ki) in data set [1] and in data set [2] were 0.008 µM and 0.523 µM, respectively.

For the origin of these results see patent US6544996B2, “1-phenyl-4-(1-[2-aryl]cyclopropyl) methylpiperazines: dopamine receptor ligands” (Neurogen Corporation, priority 1999, dated 2003).
